Measured values taken from the supplement of paper PMC10307832.

Key:
Test in all cases: relative viability (nuclei count vs DMSO), 5 days (fraction); higher = more cells survive
[1] = system: 201T
Outline: (§1)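 Medians of duplicate plates are given as relative viability. That measure is the nuclei count in treated wells divided by the count in vehicle wells. Counts were taken on 4× images of lung cancer cell lines in 1536-well plates, 5 days after pin-tool dosing the day after seeding with one drug alone or a fixed anchor-drug dose plus five library-drug doses (not always all listed) in √10 steps.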

[2] = system: NCI-H2023
Outline: as §1

[3] = system: NCI-H441
Outline: as §1

[4] = system: NCI-H3122
Outline: as §1

[5] = system: NCI-H1563
Outline: as §1

[6] = system: NCI-H1793
Outline: as §1

[7] = system: NCI-H322M
Outline: as §1

[8] = system: LOU-NH91
Outline: as §1

[9] = system: NCI-H1734
Outline: as §1

[10] = system: UMC-11
Outline: as §1

[11] = system: COR-L23
Outline: as §1

[12] = system: NCI-H520
Outline: as §1

[13] = system: NCI-H2347
Outline: as §1

[14] = system: H3255
Outline: as §1

[15] = system: NCI-H2405
Outline: as §1

[16] = system: NCI-H647
Outline: as §1

[17] = system: NCI-H2170
Outline: as §1

[18] = system: PC-14
Outline: as §1

[19] = system: EPLC-272H
Outline: as §1

[20] = system: HCC-15
Outline: as §1

With `CC(=O)O[C@@]12CO[C@@H]1C[C@H](O)[C@@]1(C)C(=O)[C@H](O)C3=C(C)[C@@H](OC(=O)[C@H](O)[C@@H](NC(=O)OC(C)(C)C)c4ccccc4)C[C@@](O)([C@@H](OC(=O)c4ccccc4)[C@H]21)C3(C)C` [Docetaxel] + Cc1nc(NC(=O)N2CCC[C@H]2C(N)=O)sc1-c1ccnc(C(C)(C)C(F)(F)F)c1 [Alpelisib] (partner 2 µM) the relative viability ([1]; first compound 0.0002 µM) was 1.01, the relative viability ([1]; first compound 0.000632 µM) was 1.06 and the relative viability ([1]; first compound 0.002 µM) was 0.878. The relative viability ([1]; first compound 0.006325 µM) was 0.555, the relative viability ([1]; first compound 0.02 µM) was 0.366 and the relative viability ([2]; first compound 0.0002 µM) was 0.49. It also gave a relative viability ([2]; first compound 0.000632 µM) of 0.553, a relative viability ([2]; first compound 0.002 µM) of 0.128 and a relative viability ([2]; first compound 0.006325 µM) of 0.137. For the same compound, the relative viability ([2]; first compound 0.02 µM) was 0.0735, the relative viability ([3]; first compound 0.0002 µM) was 0.579 and the relative viability ([3]; first compound 0.000632 µM) was 0.677. For the same compound, the relative viability ([3]; first compound 0.002 µM) was 0.323, the relative viability ([3]; first compound 0.006325 µM) was 0.205 and the relative viability ([3]; first compound 0.02 µM) was 0.172. The relative viability ([4]; first compound 0.0002 µM) was 0.719, the relative viability ([4]; first compound 0.000632 µM) was 0.753 and the relative viability ([4]; first compound 0.002 µM) was 0.764. For the same compound, the relative viability ([4]; first compound 0.006325 µM) was 0.318, the relative viability ([4]; first compound 0.02 µM) was 0.186 and the relative viability ([5]; first compound 0.0002 µM) was 0.879. It also gave a relative viability ([5]; first compound 0.000632 µM) of 0.926, a relative viability ([5]; first compound 0.002 µM) of 0.809 and a relative viability ([5]; first compound 0.006325 µM) of 0.807. It also gave a relative viability ([5]; first compound 0.02 µM) of 0.55, a relative viability ([6]; first compound 0.0002 µM) of 0.796 and a relative viability ([6]; first compound 0.000632 µM) of 0.642. For the same compound, the relative viability ([6]; first compound 0.002 µM) was 0.41, the relative viability ([6]; first compound 0.006325 µM) was 0.309 and the relative viability ([6]; first compound 0.02 µM) was 0.222. For the same compound, the relative viability ([7]; first compound 0.0002 µM) was 0.908, the relative viability ([7]; first compound 0.000632 µM) was 0.869 and the relative viability ([7]; first compound 0.002 µM) was 0.618. For the same compound, the relative viability ([7]; first compound 0.006325 µM) was 0.533, the relative viability ([7]; first compound 0.02 µM) was 0.181 and the relative viability ([8]; first compound 0.0002 µM) was 0.73. It also gave a relative viability ([8]; first compound 0.000632 µM) of 0.737, a relative viability ([8]; first compound 0.002 µM) of 0.565 and a relative viability ([8]; first compound 0.006325 µM) of 0.394. The relative viability ([8]; first compound 0.02 µM) was 0.368, the relative viability ([9]; first compound 0.0002 µM) was 0.614 and the relative viability ([9]; first compound 0.000632 µM) was 0.67. The relative viability ([9]; first compound 0.002 µM) was 0.406, the relative viability ([9]; first compound 0.006325 µM) was 0.355 and the relative viability ([9]; first compound 0.02 µM) was 0.267. The relative viability ([10]; first compound 0.0002 µM) was 0.963, the relative viability ([10]; first compound 0.000632 µM) was 0.841 and the relative viability ([10]; first compound 0.002 µM) was 0.195. It also gave a relative viability ([10]; first compound 0.006325 µM) of 0.176, a relative viability ([10]; first compound 0.02 µM) of 0.153 and a relative viability ([11]; first compound 0.0002 µM) of 0.65. The relative viability ([11]; first compound 0.000632 µM) was 0.718, the relative viability ([11]; first compound 0.002 µM) was 0.261 and the relative viability ([11]; first compound 0.006325 µM) was 0.0995. It also gave a relative viability ([11]; first compound 0.02 µM) of 0.0707, a relative viability ([12]; first compound 0.0002 µM) of 0.786 and a relative viability ([12]; first compound 0.000632 µM) of 0.95. For the same compound, the relative viability ([12]; first compound 0.002 µM) was 0.287, the relative viability ([12]; first compound 0.006325 µM) was 0.152 and the relative viability ([12]; first compound 0.02 µM) was 0.13. For the same compound, the relative viability ([13]; first compound 0.0002 µM) was 1.01, the relative viability ([13]; first compound 0.000632 µM) was 1.1 and the relative viability ([13]; first compound 0.002 µM) was 0.666. It also gave a relative viability ([13]; first compound 0.006325 µM) of 0.525, a relative viability ([13]; first compound 0.02 µM) of 0.438 and a relative viability ([14]; first compound 0.0002 µM) of 0.572. It also gave a relative viability ([14]; first compound 0.000632 µM) of 0.722, a relative viability ([14]; first compound 0.002 µM) of 0.348 and a relative viability ([14]; first compound 0.006325 µM) of 0.251. It also gave a relative viability ([15]; first compound 0.0002 µM) of 0.894, a relative viability ([15]; first compound 0.000632 µM) of 0.677 and a relative viability ([15]; first compound 0.002 µM) of 0.467. For the same compound, the relative viability ([15]; first compound 0.006325 µM) was 0.448, the relative viability ([15]; first compound 0.02 µM) was 0.288 and the relative viability ([16]; first compound 0.0002 µM) was 0.903. It also gave a relative viability ([16]; first compound 0.000632 µM) of 0.347, a relative viability ([16]; first compound 0.002 µM) of 0.189 and a relative viability ([16]; first compound 0.006325 µM) of 0.0725. It also gave a relative viability ([16]; first compound 0.02 µM) of 0.0507, a relative viability ([17]; first compound 0.0002 µM) of 0.83 and a relative viability ([17]; first compound 0.000632 µM) of 0.632. It also gave a relative viability ([17]; first compound 0.002 µM) of 0.451, a relative viability ([17]; first compound 0.006325 µM) of 0.228 and a relative viability ([17]; first compound 0.02 µM) of 0.175. It also gave a relative viability ([18]; first compound 0.0002 µM) of 0.895, a relative viability ([18]; first compound 0.000632 µM) of 0.998 and a relative viability ([18]; first compound 0.002 µM) of 0.354. For the same compound, the relative viability ([18]; first compound 0.006325 µM) was 0.11, the relative viability ([18]; first compound 0.02 µM) was 0.0576 and the relative viability ([19]; first compound 0.0002 µM) was 0.928. The relative viability ([19]; first compound 0.000632 µM) was 0.741, the relative viability ([19]; first compound 0.002 µM) was 0.43 and the relative viability ([19]; first compound 0.006325 µM) was 0.147. For the same compound, the relative viability ([19]; first compound 0.02 µM) was 0.106, the relative viability ([20]; first compound 0.0002 µM) was 0.805 and the relative viability ([20]; first compound 0.000632 µM) was 0.467. It also gave a relative viability ([20]; first compound 0.002 µM) of 0.196, a relative viability ([20]; first compound 0.006325 µM) of 0.208 and a relative viability ([20]; first compound 0.02 µM) of 0.118.
